Experimental data from paper PMC11605156, “Triterpenoids from Ganoderma lucidum inhibit cytochrome P450 enzymes interfering with the metabolic process of specific clinical drugs” (Frontiers in Pharmacology, 2024).

Assays:
CYP2A6 = target: T1, CYP2A6 (Homo sapiens, UniProt P11509); assay: CYP2A6 inhibition, coumarin probe in human liver microsomes; conditions: for activity at 30 min: human, human liver microsomes, pH 7.4, probe coumarin 2 μM, Residual activity (%) CYP2A6, HLM 0.5 mg/mL
T1 sequence (P11509 1-494): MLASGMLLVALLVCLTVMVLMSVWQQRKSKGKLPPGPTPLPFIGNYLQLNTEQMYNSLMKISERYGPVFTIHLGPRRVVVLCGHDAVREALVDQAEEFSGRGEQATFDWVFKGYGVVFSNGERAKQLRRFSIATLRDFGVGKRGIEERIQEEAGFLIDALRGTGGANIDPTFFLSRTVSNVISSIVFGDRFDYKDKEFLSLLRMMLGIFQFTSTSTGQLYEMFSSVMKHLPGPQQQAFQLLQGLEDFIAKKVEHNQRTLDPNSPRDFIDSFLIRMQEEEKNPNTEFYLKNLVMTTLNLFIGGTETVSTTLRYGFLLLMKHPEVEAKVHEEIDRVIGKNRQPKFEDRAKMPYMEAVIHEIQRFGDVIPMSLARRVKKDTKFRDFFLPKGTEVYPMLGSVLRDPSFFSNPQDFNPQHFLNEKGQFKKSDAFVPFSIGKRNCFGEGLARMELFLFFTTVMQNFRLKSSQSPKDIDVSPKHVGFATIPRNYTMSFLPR
Protocol: (§1) The total volume of the in vitro metabolic incubation system is 200 μL. The probe substrate concentration in the system is shown in Supplementary Table S1. […] The reaction sample was preheated in a constant temperature mixer at 37°C. Then NADP^+ was added to the system to initiate the reaction. The reaction time is 30 min, and 100 μL acetonitrile will be added on time to quickly terminate the reaction, followed by centrifugation at 4°C and 20,000 g for 20 min. The supernatant was analyzed using liquid chromatography tandem mass spectrometry (LC-MS/MS), and the activity of CYP enzymes was evaluated by the generation of probe metabolites. The mass spectrometry information of probe substrates is shown in Supplementary Table S3.
(§2) The isolated triterpenoids (1–66) were used to establish a compounds library. The inhibitory effects of 66 triterpenoids from G. lucidum on seven subtypes of CYP enzymes (CYP1A2, 2A6, 2D6, 2B6, 2C9, 2C19, 3A4) were evaluated followed the above-mentioned experimental procedures.
(§3) Table S1. The information of probes for CYPs activity assay

CYP1A2 = target: T2, CYP1A2 (Homo sapiens, UniProt P05177); assay: CYP1A2 inhibition, probe/drug metabolism in human liver microsomes (LC-MS/MS); conditions: for activity at 30 min: human, human liver microsomes, pH 7.4, probe phenacetin 40 μM, Residual activity (%) CYP1A2, HLM 0.5 mg/mL; for activity at 30 min / Residual activity (%) CYP1A2: phenacetin 40 μM; for Residual activity (%) CYP1A2: HLM 0.5 mg/mL
T2 sequence (P05177 1-516): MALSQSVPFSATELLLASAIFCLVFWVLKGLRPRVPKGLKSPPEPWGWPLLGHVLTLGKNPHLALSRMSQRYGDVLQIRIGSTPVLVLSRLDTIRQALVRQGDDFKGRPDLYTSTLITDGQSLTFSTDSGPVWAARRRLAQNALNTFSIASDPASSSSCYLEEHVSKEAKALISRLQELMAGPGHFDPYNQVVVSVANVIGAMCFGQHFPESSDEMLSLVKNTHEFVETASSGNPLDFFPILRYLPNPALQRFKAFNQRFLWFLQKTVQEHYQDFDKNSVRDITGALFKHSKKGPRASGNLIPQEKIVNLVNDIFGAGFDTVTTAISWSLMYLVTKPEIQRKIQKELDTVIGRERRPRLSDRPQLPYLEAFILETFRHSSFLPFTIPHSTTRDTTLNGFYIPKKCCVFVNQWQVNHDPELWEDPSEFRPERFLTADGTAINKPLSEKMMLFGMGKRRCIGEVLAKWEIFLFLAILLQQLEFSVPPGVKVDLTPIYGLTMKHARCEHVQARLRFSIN
Protocol: as §1, §2
(§4) For 16 clinical drugs metabolized by CYP enzymes, potential DDI studies were conducted on triterpenoids (6, 25) of G. lucidum, and IC50 values were measured.
(§5) Clinical drugs: Phenacetin, melatonin, clozapine and riluzole are metabolized by CYP1A2. Bupropion, artemisinin, efavirenz and sertraline are metabolized by CYP2B6. Diclofenac, valsartan, glimepiride and glibenclamide are metabolized by CYP2C9. Midazolam, imatinib, simvastatin and diltiazem are metabolized by CYP3A4.
as §3
(§6) Table S2. Information of clinical drugs

CYP2D6 = CYP2D6 (Homo sapiens, UniProt P10635); assay: CYP2D6 inhibition, dextromethorphan probe in human liver microsomes; conditions: for activity at 30 min: human, human liver microsomes, pH 7.4, probe dextromethorphan 5 μM, Residual activity (%) CYP2D6, HLM 0.5 mg/mL
Protocol: as §1, §2, §3

CYP2B6 = target: T3, CYP2B6 (Homo sapiens, UniProt P20813); assay: CYP2B6 inhibition, probe/drug metabolism in human liver microsomes; conditions: bupropion 75 μM, 30 min; for activity at 30 min: human, human liver microsomes, pH 7.4, probe bupropion 75 μM, Residual activity (%) CYP2B6, HLM 0.5 mg/mL
T3 sequence (P20813 1-491): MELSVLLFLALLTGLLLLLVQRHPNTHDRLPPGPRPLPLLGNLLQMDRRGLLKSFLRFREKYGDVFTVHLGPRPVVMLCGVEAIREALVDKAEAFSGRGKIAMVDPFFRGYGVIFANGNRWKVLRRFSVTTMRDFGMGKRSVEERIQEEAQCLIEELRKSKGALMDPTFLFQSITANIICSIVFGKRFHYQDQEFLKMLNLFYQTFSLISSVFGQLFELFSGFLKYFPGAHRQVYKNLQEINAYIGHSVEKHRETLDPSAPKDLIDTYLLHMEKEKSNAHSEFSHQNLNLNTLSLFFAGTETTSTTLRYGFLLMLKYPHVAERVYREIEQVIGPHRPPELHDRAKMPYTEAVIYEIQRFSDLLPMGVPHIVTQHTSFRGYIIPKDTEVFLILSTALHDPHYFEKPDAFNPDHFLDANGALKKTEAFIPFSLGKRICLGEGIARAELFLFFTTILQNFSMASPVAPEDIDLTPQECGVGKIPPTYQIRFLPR
Protocol: as §1, §2, §4, §5, §3, §6

CYP3A4 = CYP3A4 (Homo sapiens, UniProt P08684); assay: CYP3A4 inhibition, probe/drug metabolism in human liver microsomes; conditions: midazolam 5 μM, 30 min; for activity at 30 min: human, human liver microsomes, pH 7.4, probe midazolam 5 μM, Residual activity (%) CYP3A4, HLM 0.5 mg/mL
Protocol: as §1, §2, §4, §5, §3, §6

CYP2C19 = CYP2C19 (Homo sapiens, UniProt P33261); assay: CYP2C19 inhibition, S-mephenytoin probe in human liver microsomes; conditions: S-mephenytoin 50 μM, 30 min; for activity at 30 min: human, human liver microsomes, pH 7.4, probe S-mephenytoin 50 μM, Residual activity (%) CYP2C19, HLM 0.5 mg/mL
Protocol: as §1, §2, §3

CYP2C9 = CYP2C9 (Homo sapiens, UniProt P11712); assay: CYP2C9 inhibition, probe/drug metabolism in human liver microsomes; conditions: diclofenac 4 μM, 30 min; for activity at 30 min: human, human liver microsomes, pH 7.4, probe diclofenac 4 μM, Residual activity (%) CYP2C9, HLM 0.5 mg/mL
Protocol: as §1, §2, §4, §5, §3, §6

[1] = IC50 against CYP 1A2, substrate phenacetin 40 μM, HLM

CYP2C9, sequence (P11712 whole entry): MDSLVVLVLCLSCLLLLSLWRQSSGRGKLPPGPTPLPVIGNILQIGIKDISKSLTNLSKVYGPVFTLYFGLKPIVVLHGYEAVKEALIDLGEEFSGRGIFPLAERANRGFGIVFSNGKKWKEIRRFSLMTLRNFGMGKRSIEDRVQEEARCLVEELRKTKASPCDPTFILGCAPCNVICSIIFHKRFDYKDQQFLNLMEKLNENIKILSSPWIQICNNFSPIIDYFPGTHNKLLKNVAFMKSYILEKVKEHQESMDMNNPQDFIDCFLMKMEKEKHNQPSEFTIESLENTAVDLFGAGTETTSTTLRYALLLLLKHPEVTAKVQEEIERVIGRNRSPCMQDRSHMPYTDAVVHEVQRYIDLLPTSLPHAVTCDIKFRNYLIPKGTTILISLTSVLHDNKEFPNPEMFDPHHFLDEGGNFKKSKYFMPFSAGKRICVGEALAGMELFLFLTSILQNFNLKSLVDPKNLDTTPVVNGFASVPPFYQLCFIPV
CYP3A4, sequence (P08684 whole entry): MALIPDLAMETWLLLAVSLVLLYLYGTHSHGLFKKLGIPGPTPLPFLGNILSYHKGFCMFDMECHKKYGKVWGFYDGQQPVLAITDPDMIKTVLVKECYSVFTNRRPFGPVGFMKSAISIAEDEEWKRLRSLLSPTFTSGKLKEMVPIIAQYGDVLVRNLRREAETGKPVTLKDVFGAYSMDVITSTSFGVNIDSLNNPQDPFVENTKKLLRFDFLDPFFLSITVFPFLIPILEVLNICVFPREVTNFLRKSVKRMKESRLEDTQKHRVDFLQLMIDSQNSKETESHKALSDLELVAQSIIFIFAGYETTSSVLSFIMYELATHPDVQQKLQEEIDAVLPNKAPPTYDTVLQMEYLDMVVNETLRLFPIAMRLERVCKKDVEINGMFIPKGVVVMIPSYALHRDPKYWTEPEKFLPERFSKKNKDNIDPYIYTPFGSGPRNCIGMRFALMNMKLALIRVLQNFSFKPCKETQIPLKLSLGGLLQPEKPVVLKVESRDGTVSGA
CYP2C19, sequence (P33261 whole entry): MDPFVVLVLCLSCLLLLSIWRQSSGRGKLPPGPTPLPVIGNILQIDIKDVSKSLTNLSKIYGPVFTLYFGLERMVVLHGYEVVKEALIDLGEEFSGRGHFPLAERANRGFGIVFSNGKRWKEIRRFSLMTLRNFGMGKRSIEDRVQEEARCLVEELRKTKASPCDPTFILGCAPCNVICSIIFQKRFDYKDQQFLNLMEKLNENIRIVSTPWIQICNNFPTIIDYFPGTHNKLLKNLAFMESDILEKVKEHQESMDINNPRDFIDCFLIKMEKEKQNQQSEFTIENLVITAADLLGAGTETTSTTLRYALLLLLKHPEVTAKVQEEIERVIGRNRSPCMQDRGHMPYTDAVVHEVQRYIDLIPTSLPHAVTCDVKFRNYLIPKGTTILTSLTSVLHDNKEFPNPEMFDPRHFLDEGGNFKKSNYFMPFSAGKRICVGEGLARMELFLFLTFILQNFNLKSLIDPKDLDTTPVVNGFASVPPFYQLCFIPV
CYP2D6, sequence (P10635 whole entry): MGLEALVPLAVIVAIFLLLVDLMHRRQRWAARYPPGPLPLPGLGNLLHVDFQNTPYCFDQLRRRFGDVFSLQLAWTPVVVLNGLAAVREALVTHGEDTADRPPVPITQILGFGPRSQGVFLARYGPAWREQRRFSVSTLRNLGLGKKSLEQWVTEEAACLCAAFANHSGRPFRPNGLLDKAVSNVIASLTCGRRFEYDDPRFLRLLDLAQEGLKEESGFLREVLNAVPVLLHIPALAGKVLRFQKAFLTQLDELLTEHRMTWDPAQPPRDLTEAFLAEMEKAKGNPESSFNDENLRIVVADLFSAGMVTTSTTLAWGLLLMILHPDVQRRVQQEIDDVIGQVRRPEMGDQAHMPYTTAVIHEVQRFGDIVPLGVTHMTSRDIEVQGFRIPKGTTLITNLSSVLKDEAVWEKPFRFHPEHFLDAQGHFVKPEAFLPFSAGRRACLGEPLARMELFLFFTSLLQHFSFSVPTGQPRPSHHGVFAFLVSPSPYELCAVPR

SMILES | activity at 30 min (CYP2A6) | IC50 (CYP1A2; [1]) | activity at 30 min (CYP1A2; 30 min) | activity at 30 min (CYP2D6) | activity at 30 min (CYP2B6) | activity at 30 min (CYP3A4) | activity at 30 min (CYP2C19) | activity at 30 min (CYP2C9) | Residual activity (%) CYP1A2 (CYP1A2; 30 min) | Residual activity (%) CYP2A6 (CYP2A6; HLM 0.5 mg/mL, coumarin 2 μM, 30 min) | Residual activity (%) CYP2D6 (CYP2D6; HLM 0.5 mg/mL, dextromethorphan 5 μM, 30 min) | Residual activity (%) CYP2B6 (CYP2B6; HLM 0.5 mg/mL) | Residual activity (%) CYP3A4 (CYP3A4; HLM 0.5 mg/mL) | Residual activity (%) CYP2C19 (CYP2C19; HLM 0.5 mg/mL) | Residual activity (%) CYP2C9 (CYP2C9; HLM 0.5 mg/mL) | IC50 (CYP1A2; IC50 against metabolism of clozapine mediated by CYP1A2, substrate clozapine 10 μM, 20 min) | IC50 (CYP1A2; IC50 against metabolism of melatonin mediated by CYP1A2, substrate melatonin 5 μM, 30 min) | IC50 (CYP1A2; IC50 against metabolism of riluzole mediated by CYP1A2, substrate riluzole 5 μM, 60 min) | IC50 (CYP1A2; IC50 values, metabolism of four drugs mediated by CYP 1A2, range over phenacetin, riluzole, clozapine, melatonin)
CC(=O)OC1C(=O)C2=C(C(=O)CC3C(C)(C)C(=O)CCC23C)C2(C)C(=O)CC(C(C)CC(=O)CC(C)C(=O)O)C12C (stereo not drawn) [Compound 9] | 91.5 ± 2.1% | – | – | 94 ± 5.67% | 94.3 ± 1.83% | 93.7 ± 4.04% | 105 ± 6.46% | 77 ± 5.67% | 89.44±0.96% | – | – | – | – | – | – | – | – | – | –
CC(=O)OC1C(=O)C2=C(C(O)CC3C2(C)CCC(O)C3(C)C)C2(C)C(=O)CC(C(C)=CC(=O)CC(C)C(=O)O)C12C (stereo not drawn) [Compound 7] | 88.05 ± 0.74% | 12.8 ± 1.47 µM | 32.5 ± 1% | 104 ± 4.79% | 90.6 ± 2.12% | 94.6 ± 1.15% | 74.81 ± 0.08% | 90 ± 1.41% | – | – | – | – | – | – | – | – | – | – | –

Next, values leading:

activity at 30 min (CYP2A6) | IC50 (CYP1A2; [1]) | activity at 30 min (CYP1A2; 30 min) | activity at 30 min (CYP2D6) | activity at 30 min (CYP2B6) | activity at 30 min (CYP3A4) | activity at 30 min (CYP2C19) | activity at 30 min (CYP2C9) | Residual activity (%) CYP1A2 (CYP1A2; 30 min) | Residual activity (%) CYP2A6 (CYP2A6; HLM 0.5 mg/mL, coumarin 2 μM, 30 min) | Residual activity (%) CYP2D6 (CYP2D6; HLM 0.5 mg/mL, dextromethorphan 5 μM, 30 min) | Residual activity (%) CYP2B6 (CYP2B6; HLM 0.5 mg/mL) | Residual activity (%) CYP3A4 (CYP3A4; HLM 0.5 mg/mL) | Residual activity (%) CYP2C19 (CYP2C19; HLM 0.5 mg/mL) | Residual activity (%) CYP2C9 (CYP2C9; HLM 0.5 mg/mL) | IC50 (CYP1A2; IC50 against metabolism of clozapine mediated by CYP1A2, substrate clozapine 10 μM, 20 min) | IC50 (CYP1A2; IC50 against metabolism of melatonin mediated by CYP1A2, substrate melatonin 5 μM, 30 min) | IC50 (CYP1A2; IC50 against metabolism of riluzole mediated by CYP1A2, substrate riluzole 5 μM, 60 min) | IC50 (CYP1A2; IC50 values, metabolism of four drugs mediated by CYP 1A2, range over phenacetin, riluzole, clozapine, melatonin) | SMILES
81.24 ± 0.65% | 11.6 ± 1.02 µM | 29.1 ± 0.38% | 76.9 ± 6.89% | 97.5 ± 4.16% | 67.6 ± 2.68% | 57.82 ± 0.056% | 86.6 ± 1.3% | – | – | – | – | – | – | – | – | – | – | – | CC(CC(=O)CC(C)C1CC(O)C2(C)C3=C(C(=O)CC12C)C1(C)CCC(O)C(C)(CO)C1CC3=O)C(=O)O (stereo not drawn) [Compound 4]
– | – | – | – | – | – | – | – | 62.18±2.53% | 89.71±3.49% | 93.94±6.92% | 77.48±4.68% | 98.83±1.66% | 116.59±7.39% | 96.49±3.97% | – | – | – | – | CC(=O)OC1C(=O)C2=C(C(=O)CC3C(C)(C)C(=O)CCC23C)C2(C)C(=O)CC(C(C)CC(=O)CC(C)C(=O)O)C12C (stereo not drawn) [Compound 50]
75.3 ± 1.29% | 9.62 ± 2.03 µM | 28 ± 1.5% | 66.7 ± 6.29% | 84.6 ± 5.76% | 72.57 ± 0.19% | 58.5 ± 8.25% | 90.5 ± 3.9% | – | – | – | – | – | – | – | 12.9 ± 1.11 µM | 19 ± 1.68 µM | 14.8 ± 2.15 µM | 9.62 to 19 µM | CC(=CC(=O)CC(C)C(=O)O)C1CC(=O)C2(C)C3=C(C(=O)C(O)C12C)C1(C)CCC(=O)C(C)(CO)C1CC3O (stereo not drawn) [Compound 6, ganoderica F]
